Converted amounts (≈) assume the structure as drawn.
tested on: Serratia marcescens; assay: Antimicrobial activity against Serratia marcescens AW isolated from parotidectomy patient; assay type: functional

Row | MIC [µg/mL] | SMILES
1 | 32 (≈ 107 µM) | C[C@@H](O)[C@H]1C(=O)N2C(C(=O)O)=C(SCCNC=N)C[C@H]12 [IMIPENEM ANHYDROUS]
2 | 4 (≈ 8.41 µM) | C[C@@H](O)[C@H]1C(=O)N2C(C(=O)O)=C(S[C@@H]3CN[C@H](C(=O)Nc4cccc(C(=O)O)c4)C3)[C@H](C)[C@H]12 [ERTAPENEM]
3 | 8 (≈ 20.9 µM) | C[C@@H](O)[C@H]1C(=O)N2C(C(=O)O)=C(S[C@@H]3CN[C@H](C(=O)N(C)C)C3)[C@H](C)[C@H]12 [MEROPENEM]
